Data: patent US20170112861A1, “DRUG DELIVERY ENHANCER COMPRISING SUBSTANCE FOR ACTIVATING LYSOPHOSPHOLIPID RECEPTORS” (Osaka University, priority 2014, published 2017)

How the values were obtained:
[1] = test system: VE-cadherin in tumor blood vessels of LLC cell tumors; test: VE-cadherin expression in vascular endothelial cells of tumors after LPA administration; format: in vivo, mice; settings: LPA 3 mg/kg i.p., 24 hours after administration
Procedure: LLC cells were subcutaneously inoculated into C57BL/6 NCrSlc mice aged 8 weeks (females, SLC, Inc.) in the same manner as in Example 1. An LPA administration solution was prepared in the same manner as in Example 1. Mice on day 9 post-inoculation of LLC cells (individuals with a tumor volume of 60 to 80 mm^3) were subjected to the experiment. The mice were divided into two groups: control group and LPA group (n=3). LPA was intraperitoneally administered to the mice of the LPA group at a dose of 3 mg/kg in 100 μL PBS. The tumors of the control group were harvested just after grouping, and the tumors of the LPA group were harvested at 24 hours after LPA administration. The tumor tissue specimens were immunostained in the same manner as in Example 1 except that the primary antibody and the secondary antibody were changed. The primary antibody was Purified […] Anti-mouse VE-cadherin (BD pharmingen), and the anti-mouse VE-cadherin antibody was diluted to 200-fold in blocking solution. The secondary antibody was Alexa Fluor 488 Goat Anti-rat IgG (Life technologies), and the antibody was diluted to 400-fold in blocking solution. The prepared specimens were observed and photographed under a confocal laser microscope (Leica). Z-stack images were acquired using a confocal laser microscope and analyzed for the expression level (fluorescence intensity) of VE-cadherin.

[2] = test system: Mouse pancreatic vascular endothelial cell line (MS-1); test: In vitro barrier function of endothelial cell-cell junctions (ECIS-Zθ, resistance between cells Rb); format: cell-based; settings: MS-1 cells, 10 μM
Procedure: In vitro barrier function of the cell-cell junctions of vascular endothelial cells in the presence of LPA or VPC 31144 (S) was analyzed using a real-time cell ECIS-Zθ analyzer (Applied Biophysics).
LPA and VPC 31144 (S) were each dissolved in 50% ethanol as a 10 mM LPA stock solution and stored at −30° C. Before use, the LPA stock solution was thawed and homogenized with an ultrasonic cleaner (SND Co., Ltd.) for 1 minute. The solution was diluted in a serum-free culture medium supplemented with 0.1% BSA to a concentration of 10 μM.
Mouse pancreatic vascular endothelial cell line (MS-1) was used. The cells were suspended in DMEM (Sigma) containing 5% FBS. The cell suspension was seeded on a well plate with electrodes (8W10E+, 8 wells) specially designed for the analyzer at a density of 1×10^5 cells in 400 μL per well, and the cells were cultured overnight in an incubator to confluence. The medium was replaced by serum-free culture medium containing 0.1% BSA, and the cells were incubated for 4 hours. The medium was replaced by culture medium (serum-free culture medium containing 0.1% BSA) containing 10 μM LPA or VPC 31144 (S). The medium of the control cultures was replaced by serum-free culture medium containing 0.1% BSA. After replacement of the medium, resistance between cells (Rb) was measured in real time to evaluate the barrier function.

[3] = test system: newly formed blood vessels with increased permeability; test: Hindlimb ischemia model, edema (hindlimb circumference); format: in vivo, mice; settings: LPA 3 mg/kg i.p. once daily for three days, 24 hours after final administration, vs control
Text: A hindlimb ischemia model is used as a pathological model of Buerger's disease and chronic arteriosclerosis obliterans. In the production of such a model, a blood vessel in the hindlimb of a mouse is dissected to induce ischemia in the region supplied by the blood vessel. The surgical dissection also causes inflammation. The ischemia and inflammation induce angiogenesis. The newly formed blood vessels have increased permeability, which induces edema in the muscles of the hindlimb. An experiment was performed to determine whether LPA inhibits such increased permeability of newly formed blood vessels induced by inflammation or ischemia.
C57BL/6 NCrSlc mice aged 6 weeks (females, SLC, Inc.) were used. An incision was made in the inguinal skin of the right hindlimb under anesthesia with pentobarbital (Kyoritsu Seiyaku Corporation). The femoral vein was ligated at the proximal end, and the saphenous artery and vein were ligated at the distal end. The arteries and veins were excised along with their side branches. The skin incision was closed with a sterilized surgical suture (Natsume Seisakusho). The animal was placed in a 37° C. incubator until the animal recovered from anesthesia. […] At 24 hours after the final administration, the hindlimb circumference was measured.

[4] = test system: newly formed blood vessels in the choroid; test: Age-related macular degeneration model (laser-induced choroidal neovascularization), dextran leakage; format: in vivo, mice; settings: LPA 3 mg/kg i.p. on days 5 and 6 after laser irradiation, day 7, vs control
Text: C57BL/6 NCrSlc mice aged 8 weeks (females, SLC, Inc.) were used. Tropicamide (Santen Pharmaceutical) was dropped in the eyes of the mice under anesthesia with pentobarbital (Kyoritsu Seiyaku Corporation) to dilate the pupil. The retina surrounding the optic disc of the ocular fundus was irradiated with a laser (Ultima 2000 SE) at four sites in each of the eyes of the mice under observation with a slit lamp microscope for the induction of choroidal neovascularization. The laser irradiation conditions were 150 mW, 0.05 seconds, and 75 μm. LPA (3 mg/kg in 100 μL PBS) was intraperitoneally administered to LPA group (n=3) on days 5 and 6 after laser irradiation, and PBS (100 μL) was intraperitoneally administered to control group (n=3) on days 5 and 6 after laser irradiation. On day 7 after laser irradiation (at 48 hours after first administration of LPA), FITC-labeled 70 kDa dextran (Sigma) was administered to the tail vein of the mice under anesthesia with pentobarbital. The dextran was prepared as a solution by dissolving and diluting the FITC-labeled 70 kDa dextran in PBS to a concentration of 5 mg/mL, and 50 μL of the solution was used for the administration. At 10 minutes after dextran administration, the eyeballs were collected. […]

lysophosphatidic acid [LPA]
expression level (fluorescence intensity) of VE-cadherin from Z-stack images [1]: a strong fluorescence intensity on the cell membrane | localization of VE-cadherin in tumor vascular endothelial cells [1]: VE-cadherin localized on the cell-cell junctions | duration of the increased barrier function [2]: the increased barrier function in endothelial cells was maintained over a long period of time | electric resistance (Rb), barrier function in endothelial cells ([2]; serum-free medium with 0.1% BSA, vs control): increased the electric signals as compared with the control | hindlimb circumference (edema) [3]: significantly reduced | leakage of FITC-labeled 70 kDa dextran from newly formed blood vessels [4]: the leakage of dextran was significantly inhibited | size of the newly formed blood vessels in the choroid [4]: no significant difference was observed
